From ChEMBL document CHEMBL1201862, “PubChem BioAssay data set” (2004)
The source made the active and inactive calls.

Experiments:
[1] = biological target: UDP-galactopyranose mutase (Mycobacterium tuberculosis, UniProt P9WIQ1); assay: Inhibitors of Mycobacterium tuberculosis UDP-galactopyranose mutase (UGM) enzyme Measured in Biochemical System Using Plate Reader - 2105-02_Inhibitor_Dose_CherryPick_Activity. [Related pubchem assays (depositor defined):AID504439]
[2] = biological target: T1, Zinc finger protein mex-5 (Caenorhabditis elegans, UniProt Q9XUB2); assay: potency of MEX-5 RNA-binding blockers – biochemical, C. elegans, fluorescence polarization, dose response (AID 1960)
T1 sequence (Q9XUB2 whole entry): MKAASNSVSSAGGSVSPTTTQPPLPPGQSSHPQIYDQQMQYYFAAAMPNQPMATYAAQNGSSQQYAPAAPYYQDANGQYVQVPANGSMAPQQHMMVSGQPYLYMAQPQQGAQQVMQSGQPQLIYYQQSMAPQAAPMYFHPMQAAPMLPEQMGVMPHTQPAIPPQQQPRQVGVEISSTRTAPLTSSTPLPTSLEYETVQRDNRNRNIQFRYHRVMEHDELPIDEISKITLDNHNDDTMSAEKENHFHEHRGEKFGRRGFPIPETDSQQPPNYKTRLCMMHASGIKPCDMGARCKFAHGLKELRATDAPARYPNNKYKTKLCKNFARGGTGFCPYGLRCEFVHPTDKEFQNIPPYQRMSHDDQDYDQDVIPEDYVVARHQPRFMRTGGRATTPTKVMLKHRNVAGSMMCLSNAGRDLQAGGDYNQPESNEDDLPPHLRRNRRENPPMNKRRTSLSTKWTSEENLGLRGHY

[3] = biological target: T2, RNA-binding protein pos-1 (Caenorhabditis elegans, UniProt G5EF15); assay: disruptors of C. elegans POS-1 RNA interaction – biochemical, fluorescence polarization, dose response (AID 1964);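 also: purified POS-1 fused to maltose binding protein made in E. coli; potency of compounds blocking POS-1 binding to fluorescent RNA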
T2 sequence (G5EF15 whole entry): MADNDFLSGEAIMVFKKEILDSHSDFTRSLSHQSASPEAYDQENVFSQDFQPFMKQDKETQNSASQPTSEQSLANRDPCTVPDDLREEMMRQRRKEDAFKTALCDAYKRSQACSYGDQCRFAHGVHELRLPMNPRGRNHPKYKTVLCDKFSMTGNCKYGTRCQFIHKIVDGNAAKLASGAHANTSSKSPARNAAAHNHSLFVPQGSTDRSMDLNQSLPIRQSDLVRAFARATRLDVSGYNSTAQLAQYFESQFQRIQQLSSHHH

Cytochrome P450 1A2 = biological target: T3, Cytochrome P450 1A2 (Homo sapiens, UniProt P05177);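 also: PubChem cytochrome P450 panel assay, CYP1A2 panel member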
T3 sequence (P05177 whole entry): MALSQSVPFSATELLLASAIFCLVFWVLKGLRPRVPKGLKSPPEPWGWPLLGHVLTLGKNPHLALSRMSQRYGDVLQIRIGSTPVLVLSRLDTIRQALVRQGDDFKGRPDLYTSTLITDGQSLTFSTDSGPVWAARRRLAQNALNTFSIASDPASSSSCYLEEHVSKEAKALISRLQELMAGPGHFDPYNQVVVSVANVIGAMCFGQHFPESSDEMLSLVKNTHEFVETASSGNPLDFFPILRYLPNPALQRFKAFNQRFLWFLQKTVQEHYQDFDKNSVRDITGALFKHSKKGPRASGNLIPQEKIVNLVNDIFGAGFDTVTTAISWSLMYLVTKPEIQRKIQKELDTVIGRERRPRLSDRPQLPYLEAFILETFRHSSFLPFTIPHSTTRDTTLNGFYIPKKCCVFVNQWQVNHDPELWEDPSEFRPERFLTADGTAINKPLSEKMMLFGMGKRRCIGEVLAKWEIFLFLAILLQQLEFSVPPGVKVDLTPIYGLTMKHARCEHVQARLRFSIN

Cytochrome P450 2C19 = Cytochrome P450 2C19 (Homo sapiens, UniProt P33261); assay: Cytochrome panel assay with activity outcomes. Panel member name: p450-cyp2c19 Compounds with AC50 equal or less than 10 uM are considered active; format: functional; settings: read-out: AC50
Chain of Cytochrome P450 2C19 (P33261 whole entry): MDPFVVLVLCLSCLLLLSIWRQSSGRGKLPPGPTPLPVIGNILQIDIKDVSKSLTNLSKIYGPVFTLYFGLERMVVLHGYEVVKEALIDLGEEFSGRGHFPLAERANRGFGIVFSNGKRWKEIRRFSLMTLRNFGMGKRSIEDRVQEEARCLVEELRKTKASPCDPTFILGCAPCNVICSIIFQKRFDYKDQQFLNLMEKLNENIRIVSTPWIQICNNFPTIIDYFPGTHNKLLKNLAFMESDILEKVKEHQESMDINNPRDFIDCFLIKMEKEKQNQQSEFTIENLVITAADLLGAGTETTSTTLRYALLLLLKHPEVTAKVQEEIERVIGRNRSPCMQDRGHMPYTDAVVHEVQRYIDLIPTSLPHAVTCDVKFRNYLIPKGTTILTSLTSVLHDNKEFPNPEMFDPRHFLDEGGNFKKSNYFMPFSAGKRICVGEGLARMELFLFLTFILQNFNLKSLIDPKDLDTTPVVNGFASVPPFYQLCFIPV

Cytochrome P450 2D6 = Cytochrome P450 2D6 (Homo sapiens, UniProt P10635);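 also: CYP2D6 member of a cytochrome P450 panel assay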
Chain of Cytochrome P450 2D6 (P10635 whole entry, the tested form may be a part): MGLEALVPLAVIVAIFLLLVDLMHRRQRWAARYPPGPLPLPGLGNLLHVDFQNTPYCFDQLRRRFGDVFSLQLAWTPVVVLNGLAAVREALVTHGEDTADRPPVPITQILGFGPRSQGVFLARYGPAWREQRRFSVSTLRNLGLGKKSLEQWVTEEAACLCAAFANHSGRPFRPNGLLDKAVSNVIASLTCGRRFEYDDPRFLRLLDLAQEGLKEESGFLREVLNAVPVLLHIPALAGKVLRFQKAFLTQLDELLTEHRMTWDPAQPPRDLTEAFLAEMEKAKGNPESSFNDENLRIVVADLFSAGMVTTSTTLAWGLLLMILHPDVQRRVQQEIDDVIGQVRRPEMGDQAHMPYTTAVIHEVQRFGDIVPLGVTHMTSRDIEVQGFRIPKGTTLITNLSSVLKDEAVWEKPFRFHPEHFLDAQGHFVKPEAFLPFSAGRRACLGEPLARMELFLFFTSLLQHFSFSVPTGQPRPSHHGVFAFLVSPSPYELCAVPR

Apelin receptor = Apelin receptor (Homo sapiens, UniProt P35414); assay: apelin receptor antagonists, arrestin read-out – cell-based, luminescent, enzyme-fragment complementation, selectivity assay for CCR6 antagonist project, SAR follow-up (AID 588359); format: functional
Chain of Apelin receptor (P35414 whole entry, the tested form may be a part): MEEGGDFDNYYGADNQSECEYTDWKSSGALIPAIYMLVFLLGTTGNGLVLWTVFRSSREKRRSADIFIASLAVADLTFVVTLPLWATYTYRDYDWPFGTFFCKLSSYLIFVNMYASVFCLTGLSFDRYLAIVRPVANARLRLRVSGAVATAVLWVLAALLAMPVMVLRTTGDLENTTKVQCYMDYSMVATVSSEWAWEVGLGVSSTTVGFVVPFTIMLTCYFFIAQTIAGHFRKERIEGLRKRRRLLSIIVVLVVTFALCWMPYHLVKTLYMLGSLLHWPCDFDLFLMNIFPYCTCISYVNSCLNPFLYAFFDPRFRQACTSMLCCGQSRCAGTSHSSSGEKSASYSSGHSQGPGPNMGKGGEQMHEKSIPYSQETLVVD

Beta-galactosidase = Beta-galactosidase (Escherichia coli, UniProt Q8VNN2); assay: detection-enzyme interference by beta-gal modulators – biochemical, E. coli enzyme, set 3, artefact control for CCR6 antagonist project, dose response (AID 504712); format: functional
Chain of Beta-galactosidase (Q8VNN2 whole entry): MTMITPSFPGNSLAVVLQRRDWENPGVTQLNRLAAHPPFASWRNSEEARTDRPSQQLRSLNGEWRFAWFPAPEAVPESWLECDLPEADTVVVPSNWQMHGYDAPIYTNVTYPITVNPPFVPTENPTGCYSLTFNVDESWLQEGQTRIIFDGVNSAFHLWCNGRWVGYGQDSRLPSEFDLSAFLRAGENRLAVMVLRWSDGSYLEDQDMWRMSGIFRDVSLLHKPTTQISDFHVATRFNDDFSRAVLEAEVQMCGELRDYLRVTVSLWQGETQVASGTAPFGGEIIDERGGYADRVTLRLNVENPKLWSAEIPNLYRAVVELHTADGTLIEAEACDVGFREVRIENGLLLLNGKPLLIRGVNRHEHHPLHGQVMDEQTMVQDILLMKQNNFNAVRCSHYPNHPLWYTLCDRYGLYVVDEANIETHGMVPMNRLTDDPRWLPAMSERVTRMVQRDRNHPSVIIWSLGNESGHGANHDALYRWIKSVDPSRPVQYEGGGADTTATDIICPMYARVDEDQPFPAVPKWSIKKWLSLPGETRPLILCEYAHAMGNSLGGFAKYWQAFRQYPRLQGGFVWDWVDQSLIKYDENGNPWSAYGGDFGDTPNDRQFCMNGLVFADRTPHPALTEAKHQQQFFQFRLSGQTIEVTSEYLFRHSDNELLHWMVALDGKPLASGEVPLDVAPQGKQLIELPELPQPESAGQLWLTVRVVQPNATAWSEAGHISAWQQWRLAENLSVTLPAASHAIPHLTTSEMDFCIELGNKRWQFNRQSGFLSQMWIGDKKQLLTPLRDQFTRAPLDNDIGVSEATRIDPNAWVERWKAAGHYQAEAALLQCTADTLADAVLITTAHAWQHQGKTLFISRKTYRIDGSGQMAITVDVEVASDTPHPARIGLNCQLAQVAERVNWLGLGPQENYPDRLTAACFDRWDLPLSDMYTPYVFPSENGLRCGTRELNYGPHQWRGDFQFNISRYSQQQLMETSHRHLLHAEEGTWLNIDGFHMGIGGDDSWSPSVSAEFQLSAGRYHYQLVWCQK

Keap1/Nrf2 = Keap1/Nrf2 (Homo sapiens, UniProt Q14145); assay: disruptors of Keap1 binding to Nrf2 peptide – biochemical, fluorescence polarization, cherry-picked samples, dose response (AID 588683)
Chain of Keap1/Nrf2 (Q16236 whole entry): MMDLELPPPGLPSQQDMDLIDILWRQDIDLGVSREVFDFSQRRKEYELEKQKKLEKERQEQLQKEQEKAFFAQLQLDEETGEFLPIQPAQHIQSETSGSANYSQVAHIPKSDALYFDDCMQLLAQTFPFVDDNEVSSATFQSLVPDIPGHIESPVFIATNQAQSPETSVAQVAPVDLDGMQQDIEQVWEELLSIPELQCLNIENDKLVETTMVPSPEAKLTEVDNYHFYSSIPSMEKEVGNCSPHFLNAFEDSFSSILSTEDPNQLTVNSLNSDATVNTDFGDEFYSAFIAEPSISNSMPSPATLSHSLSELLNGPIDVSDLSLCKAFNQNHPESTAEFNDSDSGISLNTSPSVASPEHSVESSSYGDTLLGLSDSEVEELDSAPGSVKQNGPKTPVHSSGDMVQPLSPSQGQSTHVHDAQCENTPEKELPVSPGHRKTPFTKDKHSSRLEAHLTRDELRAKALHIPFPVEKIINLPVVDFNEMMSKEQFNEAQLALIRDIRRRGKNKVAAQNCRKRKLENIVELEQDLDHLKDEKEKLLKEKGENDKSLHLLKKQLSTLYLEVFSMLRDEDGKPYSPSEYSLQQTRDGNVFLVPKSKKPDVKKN
Chain of Keap1/Nrf2 (Q14145 whole entry): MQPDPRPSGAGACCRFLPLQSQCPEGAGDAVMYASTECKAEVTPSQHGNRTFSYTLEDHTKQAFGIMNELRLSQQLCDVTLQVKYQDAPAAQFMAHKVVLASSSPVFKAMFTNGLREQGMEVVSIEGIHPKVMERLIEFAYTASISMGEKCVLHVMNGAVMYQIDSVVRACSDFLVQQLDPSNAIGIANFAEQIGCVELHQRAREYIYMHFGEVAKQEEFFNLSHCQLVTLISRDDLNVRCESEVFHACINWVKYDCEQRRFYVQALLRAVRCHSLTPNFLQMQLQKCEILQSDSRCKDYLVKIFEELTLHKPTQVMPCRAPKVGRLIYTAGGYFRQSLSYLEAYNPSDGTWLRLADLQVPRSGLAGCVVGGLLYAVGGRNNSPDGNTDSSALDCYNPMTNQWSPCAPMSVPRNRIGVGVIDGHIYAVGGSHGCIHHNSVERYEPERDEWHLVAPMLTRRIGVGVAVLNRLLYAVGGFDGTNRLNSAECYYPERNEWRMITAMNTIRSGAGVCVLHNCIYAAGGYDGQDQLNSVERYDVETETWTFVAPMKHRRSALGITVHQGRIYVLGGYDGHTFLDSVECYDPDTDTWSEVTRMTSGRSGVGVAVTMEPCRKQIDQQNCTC

HEK293 [4] = assay: cells; settings: Homo sapiens
[5] = Luminescence Cell-Based Dose Response HTS to Identify Inhibitors of 5'UTR Stem-Loop Driven Prion Protein mRNA Translation in H4 Neuroglioblastoma Cells. [Related pubchem assays: 1827 (Project Summary), 1813 (Primary HTS)]; format: functional
[6] = microbe, parasite or virus in culture; format: functional; settings: Mycobacterium tuberculosis
[7] = test system: Streptococcus sp. 'group A'; assay: Streptococcus pyogenes SK(-)GAS viability under kanamycin – luminescence, BacTiterGlo, confirmation, counter-screen for streptokinase expression inhibitor project, dose response (AID 1900); format: functional, organism-based
[8] = alpha-synuclein stem-loop luciferase translation blockers – H4 neuroglioma cells, luminescence, confirmation (AID 1988); format: functional, cell-based
[9] = biological target: C-C chemokine receptor type 6 (Homo sapiens, UniProt P51684); assay: antagonism of CCR6 beta-arrestin recruitment – cell-based, luminescent beta-arrestin readout, dose response (AID 504728); format: functional
Chain of C-C chemokine receptor type 6 (P51684 whole entry): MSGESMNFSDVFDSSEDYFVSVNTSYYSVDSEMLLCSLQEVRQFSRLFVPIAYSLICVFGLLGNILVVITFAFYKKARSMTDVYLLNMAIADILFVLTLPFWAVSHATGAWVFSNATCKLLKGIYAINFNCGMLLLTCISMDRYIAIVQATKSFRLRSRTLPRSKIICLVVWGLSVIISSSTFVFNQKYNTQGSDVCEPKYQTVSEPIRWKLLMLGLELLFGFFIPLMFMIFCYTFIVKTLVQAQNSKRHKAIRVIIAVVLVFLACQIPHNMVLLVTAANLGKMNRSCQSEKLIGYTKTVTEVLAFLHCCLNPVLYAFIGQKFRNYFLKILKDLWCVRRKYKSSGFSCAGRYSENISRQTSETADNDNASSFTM

INS1 = assay: INS-1E survival protection against cytokine death – cell-based, luminescence, retest, dose response (AID 449756); format: functional; settings: Rattus norvegicus;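 also: cell death triggered by IL-1 beta plus TNF-alpha plus IFN-gamma mixture; protective hits raise ATP signal compared with cytokine alone wells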
HEK293 [10] = assay: cells; settings: Homo sapiens; remark: listed apart in the source
Streptokinase A = biological target: T4, Streptokinase A (Streptococcus pyogenes serotype M1, UniProt P10520); assay: viability-normalized secreted streptokinase activity reduction – plasminogen activation absorbance, OD405, dose response (AID 1914); format: functional, Streptococcus pyogenes M1 GAS;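 also: secreted streptokinase activity via plasminogen activation per viability signal from cell pellet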
T4 sequence (P10520 whole entry): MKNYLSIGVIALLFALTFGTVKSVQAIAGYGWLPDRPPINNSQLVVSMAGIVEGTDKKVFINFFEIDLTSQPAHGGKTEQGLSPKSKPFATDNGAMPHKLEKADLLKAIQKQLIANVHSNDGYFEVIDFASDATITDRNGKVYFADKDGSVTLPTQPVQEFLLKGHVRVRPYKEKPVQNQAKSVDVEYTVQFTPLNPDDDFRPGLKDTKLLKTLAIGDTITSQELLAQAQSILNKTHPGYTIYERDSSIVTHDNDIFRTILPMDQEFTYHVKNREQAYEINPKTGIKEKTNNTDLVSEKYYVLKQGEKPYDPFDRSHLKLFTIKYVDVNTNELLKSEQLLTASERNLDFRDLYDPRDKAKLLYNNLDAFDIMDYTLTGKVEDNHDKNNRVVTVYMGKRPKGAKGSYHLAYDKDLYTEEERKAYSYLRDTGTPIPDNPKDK

Streptococcus = assay: GAS UMAA2166 growth inhibition – luminescence, BacTiterGlo, counter-screen for streptokinase expression inhibitor project, dose response (AID 1915); format: functional, organism-based;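 also: potency for reduction of bacterial viability or growth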
[11] = luciferase reporter signal suppression in cells – H4 neuroglioma cells, luminescence, dose response (AID 1990); format: functional, cell-based

Chain of UDP-galactopyranose mutase (P9WIQ1 whole entry): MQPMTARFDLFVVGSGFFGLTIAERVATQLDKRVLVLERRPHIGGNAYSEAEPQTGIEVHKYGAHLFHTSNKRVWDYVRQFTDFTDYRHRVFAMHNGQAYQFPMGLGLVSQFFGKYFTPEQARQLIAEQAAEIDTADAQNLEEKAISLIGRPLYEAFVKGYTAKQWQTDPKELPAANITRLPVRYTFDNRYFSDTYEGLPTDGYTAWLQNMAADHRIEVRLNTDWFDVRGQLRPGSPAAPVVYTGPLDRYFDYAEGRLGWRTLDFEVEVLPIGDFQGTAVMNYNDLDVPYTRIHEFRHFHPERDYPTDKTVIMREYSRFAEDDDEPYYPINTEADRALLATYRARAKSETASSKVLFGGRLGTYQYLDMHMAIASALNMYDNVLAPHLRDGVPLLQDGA

**Q.** With COC(=O)Cn1cc(C=C2C(=O)N(C)C(=O)N(C)C2=O)c2ccccc21 as the molecule, how does the AC50 [1] read?
**A.** 129 µM (active)

**Q.** And the EC50 [2]?
**A.** 2.85 µM (inconclusive)

**Q.** What about the EC50 [3] of the same molecule?
**A.** 3.15 µM (inconclusive)

**Q.** Which AC50 (Cytochrome P450 1A2) does the source give for COc1ccc(-c2oc3ccccc3c(=O)c2OC(=O)c2ccc(C)cc2)cc1 here?
**A.** 1.41 µM (inconclusive)

**Q.** And the AC50 (Cytochrome P450 2C19)?
**A.** 1 µM (inconclusive)

**Q.** And the AC50 (Cytochrome P450 2D6)?
**A.** inconclusive

**Q.** With CCOC(=O)N1CCN(C(=O)C2CCN(C(=O)c3ccccc3C)CC2)CC1 as the molecule, how does the IC50 (Apelin receptor) read?
**A.** > 66.6 µM (inactive)

**Q.** And the IC50 (Beta-galactosidase)?
**A.** > 66.6 µM (inactive)

**Q.** With Cc1ccc(S(=O)(=O)Nc2cccc(S(=O)(=O)Nc3ccccc3C(=O)O)c2)c(C)c1 as the molecule, how does the AC50 (Keap1/Nrf2) read?
**A.** > 52 µM (inactive)

**Q.** For COc1cccc(/C=N/Nc2nc(Nc3ccccc3)nc(-n3nc(C)cc3C)n2)c1O, which EC50 (HEK293 [4]) is on record?
**A.** > 59.6 µM (inactive)

**Q.** What about the EC50 [5] of the same molecule?
**A.** 0.127 µM (active)

**Q.** And the CC50 [6]?
**A.** 8.56 µM (active)

**Q.** What about the EC50 [7] of the same molecule?
**A.** 1.7 µM (active)

**Q.** And the EC50 [8]?
**A.** 8.28 µM (active)

**Q.** What about the IC50 [9] of the same molecule?
**A.** > 66.6 µM (inactive)

**Q.** What about the AC50 (INS1) of the same molecule?
**A.** 0.535 µM (active)

**Q.** What about the IC50 (Beta-galactosidase) of the same molecule?
**A.** > 66.6 µM (inactive)

**Q.** What about the EC50 (HEK293 [10]) of the same molecule?
**A.** > 59.6 µM (inactive)

**Q.** What about the EC50 (Streptokinase A) of the same molecule?
**A.** > 150 µM (not active)

**Q.** What about the EC50 (Streptococcus) of the same molecule?
**A.** 4.15 µM (active)

**Q.** What about the EC50 [11] of the same molecule?
**A.** 52.9 µM (active)
